# Source: US20100183546A1, “Method for Increasing CD8+ Cytotoxic T Cell Responses and for Treating Multiple Sclerosis” (Baylor College of Medicine, priority 2003, published 2010)
# Tested on: CD8+ T cells in CD4-depleted PBMC
# Experiment: Precursor frequency analysis of CD8+ T cells recognizing MBP-derived peptides (split-well method, [3H]-thymidine proliferation)
# Assay type: cell-based, human
# Details: MS patients vs healthy controls; p<0.05 for MBP111-119 and MBP87-95
row,Substance,frequency of peptide-recognizing CD8+ T cells in MS patients compared with control subjects
1,"MBPVVHFFKNIV [SEQ ID NO. 1, Fragment of human MBP, amino acids 87-95]",considerably higher
2,"SLSRFSWGA [SEQ ID NO. 2, Fragment of human MBP, amino acids 111-119]",considerably higher
3,"immunodominant epitope (residues 830-838) of tetanus toxoid: synthetic peptide corresponding to an immunodominant peptide of tetanus toxoid (residues 830-838), used as control (QYIKANSKF; UniProt P04958 830-838, looked up, fragment) [reference compound]",did not differ significantly
